One experiment has as its target T1, rat EP3β receptor (Rattus norvegicus, UniProt P34980).
T1 construct: expressed in transfected cells
T1 sequence (P34980 1-361 isoform P34980-2): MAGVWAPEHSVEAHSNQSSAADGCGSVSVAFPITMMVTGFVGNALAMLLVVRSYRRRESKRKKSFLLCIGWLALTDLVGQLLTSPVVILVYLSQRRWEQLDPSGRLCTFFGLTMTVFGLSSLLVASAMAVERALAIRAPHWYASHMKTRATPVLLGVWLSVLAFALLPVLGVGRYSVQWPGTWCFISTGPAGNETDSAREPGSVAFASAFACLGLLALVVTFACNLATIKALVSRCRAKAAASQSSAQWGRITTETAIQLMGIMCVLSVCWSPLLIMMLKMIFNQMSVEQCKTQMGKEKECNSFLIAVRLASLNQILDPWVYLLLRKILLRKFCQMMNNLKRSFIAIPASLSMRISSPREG
The experiment in a line: Rat EP3 receptor agonistic/antagonistic action (intracellular Ca2+, FLIPR, HEK293 stable expression cells). Type of experiment: cell-based. As to conditions: inhibition of intracellular Ca2+ increasing action by PGE2; read-out: RatEP3 Antagonistic Action IC50. The procedure:
Using rat EP1 or rat EP3β receptor stable expression cells, the intracellular Ca^2+ concentration was measured using a fluorescent imaging plate reader (FLIPR manufactured by Molecular Devices Corporation). The agonistic activity was evaluated by the intracellular Ca^2+ increasing action of the test compound, and the antagonistic activity was evaluated by the inhibiting action of the test compound on the intracellular Ca^2+ increasing action by PGE2.
The cDNA of the rat EP 1 or EP3β receptor was subcloned into an expression vector (pcDNA3.1-V5-His-topo, manufactured by Invitrogen Corporation). This expression vector was introduced into HEK293 cells (American Type Culture Collection) to prepare a rat EP1 or EP3β receptor stable expression cell line. These cells were seeded onto a 96-well poly-D-lysin treated black wall clear bottom plate (manufactured by Becton, Dickinson and Company) at 2 to 3×10^4 cell/well, and used for the experiment the next day. The measurement of the intracellular Ca^2+ concentration was carried out by an FLIPR calcium 3 assay kit (manufactured by Molecular Devices Corporation). The culture medium of each well was removed by suction and replaced with a loading buffer (Hank's balanced salt solution containing 20 mM HEPES-NaOH (pH 7.4), 2.5 mM Probenecid, 0.1% bovine serum albumin, and a color), followed by incubating at room temperature for 3 hours and loading a color. For the evaluation of the agonistic action, the change in the intracellular Ca^2+ concentration was determined from the difference in the maximum value of the intracellular Ca^2+ concentration after the addition of the test compound and the value before the addition of the test compound. For the evaluation of the antagonistic action, after incubating the test compound for 5 minutes, PGE2 was added thereto to determine the change in the intracellular Ca^2+ concentration by PGE2.
Further, NE means that the action has no significance.

In another experiment the test system is TNF-α production. The experiment in a line: In vivo TNF-α production inhibiting action in rat (LPS-induced plasma TNF-α). Also on record: species or system SD male rats. As to conditions: oral administration 1 hour before LPS (10 μg/kg i.v.), plasma TNF-α 90 minutes after LPS. As to the method: LPS (10 μg/kg) was administered to caudal veins of SD male rats, and after 90 minutes from the administration, the heparin blood was collected from the abdominal vena cava to prepare a plasma. The test compound was orally administered 1 hour before the administration of LPS. The amount of TNF-α in the plasma was measured using a BD OptEIA rat TNF ELISA set (manufactured by Becton, Dickinson and Company) according to the attached method. The inhibitory rate by the test compound was determined from the amount of TNF-α in plasma in a control group (administered with a solvent).

Another experiment deals with rat EP4 receptor (Rattus norvegicus, UniProt P43114). Description: EP4 receptor agonistic action in rat (cAMP increasing action in rat EP4 receptor expression CHO-K1 cells). On the set-up: expressed in transfected cells. As to conditions: cAMP increasing action by 1 μM PGE2 taken as 100%. Type of experiment: cell-based. As to the method:
The agonistic activity was evaluated by the cAMP increasing action in the rat EP4 receptor expression cells. The rat EP4 receptor expression vector was introduced into CHO-K1 cells (American Type Culture Collection) to prepare a rat EP4 receptor stable expression cell line. These cells were seeded onto a 96-well microplate at 2×10^4 cell/well, and used for the experiment the next day. The culture medium of each well was removed by suction, 100 μL/well of an assay culture medium (2 μM indomethacin, 0.1% bovine serum albumin-containing α-MEM) was added thereto, and incubated at 37° C. for 1 hour. The culture medium was removed again by suction, and replaced with 100 μL/well of an assay culture medium comprising a test compound and 1 mM IBMX (3-isobutyl-1-methylxanthine). After incubating at 37° C. for 30 minutes, the culture medium was removed by suction, 100 μL/well of a cell lysate (0.2% Triton-X100-containing phosphate buffer physiological saline) was put thereinto, and the plate was shaken for 10 minutes. Using a cAMP femto 2 kit (manufactured by Cis Bio International), the cAMP concentration in the cell lysate was measured. Further, the cAMP increasing action (%) was calculated with the cAMP increasing action by 1 μM PGE2 was taken as 100%.

Experiment [1] relates to LPS-induced TNF-α production in THP-1 cells. The experiment in a line: Inhibitory action on LPS-induced TNF-α production in THP-1 cells. The following applies: Homo sapiens, 3 hours after LPS, ELISA. Type of experiment: cell-based. The procedure:
Human monocytic cell line THP-1 cells were suspended in an assay medium (PRMI-1640 containing 10% fetal bovine serum, 100 unit/mL penicillin G sodium, and 100 μg/mL streptomycin sulfate), and seeded onto a 96-well plate at 1×10^5 cells/well. 50 μL/well of an assay medium containing a test compound was added thereto, followed by incubation at 37° C. for 30 minutes. Further, 50 μL/well of an assay medium containing 1 to 5 μg/mL of LPS was added thereto, and the TNF-α concentration in the assay medium of each well after 3 hours was measured. The measurement was carried out by means of a standard ELISA method. A 96-well plate which had been coated overnight with an anti-human TNF monoclonal antibody (clone: MAb1) (manufactured by Becton, Dickinson and Company) as a capture antibody was washed with a wash buffer (PBS containing 0.05% Tween-20), and PBS containing 10% fetal bovine serum was incubated at room temperature for 1 hour to perform blocking. After washing with a wash buffer, 100 μL/well of the assay medium to be measured was incubated at 4° C. overnight. As the standard material to be measured, a recombinant human TNF (manufactured by Becton, Dickinson and Company) was used. After washing with a wash buffer, 100 μL of a biotinylated anti-human TNF monoclonal antibody (clone: MAb11) as a detection antibody was treated at room temperature for 1 hour. After washing with a wash buffer, it was treated with 100 μL/well of an HRP-labeled Streptavidin (manufactured by Zymed Laboratories, Inc.) at room temperature for 30 minutes, and washed again. Treatment was conducted using 100 μL/well of a TMB (3,3′,5,5′-tetramethylbenzidine) substrate liquid at room temperature for 20 minutes in a dark room. A 2 M sulfuric acid was added thereto at 50 μL/well to stop the reaction, and an absorbance at 450 nm/570 nm was measured by means of a plate reader SPECRA max (manufactured by Molecular Devices Inc.).
For orientation: An ELISA detects its analyte on a solid surface through an enzyme-linked reagent.

SMILES strings stand for the structures. Structures can show the parent of a compound that is named as a salt.

Consider 4 compounds from patent publication US20110082133A1, “PYRIDONE COMPOUNDS” (priority 2008, published 2011).

As a reminder, the IC50 is the concentration that gives 50% inhibition. Broadly, the ED50 is the midpoint of the dose-response relation. Low readings indicate an effect at a small dose, high ones a need for a large dose.

rat EP4 receptor, sequence (P43114 whole entry): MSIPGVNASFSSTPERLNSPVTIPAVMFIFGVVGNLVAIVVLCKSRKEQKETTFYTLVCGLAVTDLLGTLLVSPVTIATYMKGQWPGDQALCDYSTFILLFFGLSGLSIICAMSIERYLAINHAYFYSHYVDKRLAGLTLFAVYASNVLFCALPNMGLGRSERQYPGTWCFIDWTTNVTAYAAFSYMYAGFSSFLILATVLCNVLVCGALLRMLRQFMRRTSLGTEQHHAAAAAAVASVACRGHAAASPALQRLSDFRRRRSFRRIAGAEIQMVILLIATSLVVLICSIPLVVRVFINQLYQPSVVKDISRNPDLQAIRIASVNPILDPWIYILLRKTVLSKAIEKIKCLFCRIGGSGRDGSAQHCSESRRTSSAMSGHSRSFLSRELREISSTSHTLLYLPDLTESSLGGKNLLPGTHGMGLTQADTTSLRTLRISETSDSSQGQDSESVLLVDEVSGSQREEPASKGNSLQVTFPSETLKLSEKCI

Turning to `O=C(O)c1ccc(CCn2c(CNc3cccc(OC(F)(F)F)c3)c(Cl)cc(Cl)c2=O)cc1` [Example 107], the IC50 was over 10 µM at rat EP3β receptor and 0.04 µM in experiment [1]. This compound also came in with an ED50 in the experiment with TNF-α production of 1 mg/kg. Further, at rat EP4 receptor, the “cAMP increasing action (%) at 10 μM” value came out at 76%.
On the same counts, the results for `O=C(O)c1ccc(CCn2c(CN3CCc4ccc(F)cc43)c(Cl)cc(Cl)c2=O)cc1` [Example 9, 4-(2-{3,5-dichloro-6-[(6-fluoro-2,3-dihydro-1H-indol-1-yl)methyl]-2-oxopyridin-1(21-1)-yl}ethyl)benzoic acid] are over 10 µM, 0.011 µM, 4.3 mg/kg and 65%.
On the same counts, the results for `CN(Cc1c(Cl)cc(Cl)c(=O)n1CCc1ccc(C(=O)O)cc1)c1cccc(Cl)c1` [Example 160] are at least 10 µM, 0.029 µM, 2.3 mg/kg and 79%.
On the same counts, the results for `CCC[C@H]1CCCN1Cc1c(Cl)cc(Cl)c(=O)n1CCc1ccc(C(=O)O)cc1` [Example 17, 4-{2-[3,5-dichloro-2-oxo-6-{[(2S)-2-propylpyrrolidin-1-yl]methyl}pyridin-1(2H)-yl]ethyl}benzoic acid trifluoroacetate] are over 10 µM, 0.0094 µM, 0.15 mg/kg and 58%.
